Tested on: CD1 female mouse brain lipidome
Experiment: Brain-region lipid levels (HPLC/MS/MS lipidomics) 2 h after single i.p. 3 mg/kg CP 55,940 vs vehicle
Assay type: in vivo
Parameters: N-arachidonoyl phenylalanine level, Mean / N-stearoyl tryptophan level, Mean / N-stearoyl proline level, Mean / N-stearoyl leucine level, Mean / N-stearoyl phenylalanine level, Mean / N-stearoyl serine level, Mean / N-stearoyl methionine level, Mean: unit: moles per gram
Details: hypothalamus
Experimental: The Bloomington Institutional Animal Care and Use Committee of Indiana University reviewed and approved the animal procedures. Female mice from the CD1 strain were utilized to match our study examining THC’s effects on the brain lipidome ([Leishman et al., 2018]). Mice were given a single i.p. injection of either 3 mg/kg CP or 1:1:18 cremophor:ethanol:saline vehicle (please refer to the section “3 mg/kg CP Is Relevant for Synthetic Cannabinoid Abuse and Has Stronger Effects on the Female Mouse Brain Lipidome During Adolescence” for a justification of dose and use of female mice). Three different age groups were given injections: PND 35 and PND 50 adolescents, and adult mice (PND 113). At least eight mice in each age group received CP and at least eight received vehicle. Matching the THC study time course ([Leishman et al., 2018]), mice were sacrificed via rapid decapitation 2 h after injection. Brains were immediately removed and flash-frozen in liquid nitrogen, and then stored at -80°C until dissections were performed. Brains were dissected on an ice-cold dissection plate into the following regions: STR, HIPP, CER, THAL, CTX, HYP, MID, and STEM. These abbreviations for these brain areas will be used exclusively when discussing the results generated by these specific dissections. Each dissected area was immediately placed in liquid nitrogen and then stored at -80°C until used for lipid extraction.
Tissue extracts were performed as previously described ([Bradshaw et al., 2006]; [Stuart et al., 2013]; [Raboune et al., 2014]; [Leishman et al., 2016a],[b], [2017], [2018]). First, samples were shock frozen in liquid nitrogen, weighed, and transferred to a centrifuge tube. The mass of the largest sample was multiplied by 50 to determine how many milliliters of HPLC-grade methanol (Fisher, Fair Lawn, NJ, United States) to add. Then, samples were spiked with 500 pmol deuterium-labeled NAGly (d8NAGly; Cayman Chemical, Ann Arbor, MI, United States). Samples were placed on ice in darkness for 2 h then individually homogenized and centrifuged at 19,000 × g for 20 min at 20°C. Supernatants were diluted with HPLC water (purified in house) to make a solution of 75% water, 25% supernatant. Lipids were partially purified on C18 solid phase extraction columns (Agilent, Palo Alto, CA, United States). A series of four elutions with 1.5 mL of 60%, 75%, 85%, and 100% methanol were collected ([Stuart et al., 2013]; [Leishman et al., 2016a],[b], [2018]).
As previously described ([Bradshaw et al., 2006]; [Tan et al., 2006]; [Smoum et al., 2010]; [Stuart et al., 2013]; [Tortoriello et al., 2013]; [Raboune et al., 2014]; [Leishman et al., 2016a],[b], [2017], [2018]), samples were analyzed using an Applied Biosystems API 3000 triple quadrupole mass spectrometer with electrospray ionization (Foster City, CA, United States). Using an Agilent XDB-C18 reversed phase analytical column and optimized mobile phase gradients, 20 μL from each elution were chromatographed. Two Shimadzu 10ADvp pumps (Columbia, MD, United States) provided the pressure for gradient elution. Mobile phase A: 20% methanol, 80% water (v/v) and 1 mM ammonium acetate (Sigma, St. Louis, MO, United States). Mobile phase B: 100% methanol, 1 mM ammonium acetate. Every method run began with 0% mobile phase B, reached 100% mobile phase B flowing at 0.2 mL/min, and gradually returned to 0% mobile phase B.
This screening library will be referred to as the lipidome when discussing data from this study. HPLC/MS/MS data were analyzed using Analyst software (Applied Biosystems) ([Bradshaw et al., 2006]; [Tan et al., 2006]; [Stuart et al., 2013]; [Tortoriello et al., 2013]; [Raboune et al., 2014]; [Leishman et al., 2016a],[b], [2017], [2018]). Chromatograms (Supplementary Figure 3) were generated by determining the retention time of analytes from the analytical column with a [M-1] or [M+1] parent peak and a fragmentation peak corresponding to the programmed values. […]

[1] = PND 50 female mice, 3mg/kg CP 55,940
[2] = PND 35 adolescent female mice, 3 mg/kg

`CCCCCCC(C)(C)c1ccc([C@@H]2C[C@H](O)CC[C@H]2CCCO)c(O)c1` [CP 55,940] was tested, and the “N-docosahexaenoyl methionine level, Mean” value [1] was “BDL”, the “N-docosahexaenoyl phenylalanine level, Mean” value [1] was “PISSR” and the “N-docosahexaenoyl proline level, Mean” value [1] was “BDL”. The “N-docosahexaenoyl serine level, Mean” value [1] was “PISSR”, the “N-docosahexaenoyl tryptophan level, Mean” value [1] was “BDL” and the “N-docosahexaenoyl tyrosine level, Mean” value [1] was “BDL”. The “N-docosahexaenoyl valine level, Mean” value [1] was “BDL”, the “N-linoleoyl GABA level, Mean” value [1] was “PISSR” and the “N-linoleoyl alanine level, Mean” value [1] was 3.81E-13. The “N-linoleoyl ethanolamine level, Mean” value [1] was 3.47E-11, the “N-linoleoyl glycine level, Mean” value [1] was 1.12E-13 and the “N-linoleoyl leucine level, Mean” value [1] was “PISSR”. For the same compound, the “N-linoleoyl methionine level, Mean” value [1] was “BDL”, the “N-linoleoyl phenylalanine level, Mean” value [1] was “PISSR” and the “N-linoleoyl proline level, Mean” value [1] was “BDL”. For the same compound, the “N-linoleoyl serine level, Mean” value [1] was 1.7E-10, the “N-linoleoyl tryptophan level, Mean” value [1] was “BDL” and the “N-linoleoyl tyrosine level, Mean” value [1] was “BDL”. For the same compound, the “N-linoleoyl valine level, Mean” value [1] was “BDL”, the “N-nervonoyl valine level, Mean” value [1] was “BDL” and the “N-oleoyl GABA level, Mean” value [1] was 1.97E-12. The “N-oleoyl alanine level, Mean” value [1] was 2.61E-12, the “N-oleoyl dopamine level, Mean” value [1] was “BDL” and the “N-oleoyl ethanolamine level, Mean” value [1] was 8.36E-11. For the same compound, the “N-oleoyl glycine level, Mean” value [1] was 5.38E-13, the “N-oleoyl leucine level, Mean” value [1] was 3.54E-13 and the “N-oleoyl methionine level, Mean” value [1] was “PISSR”. For the same compound, the “N-oleoyl phenylalanine level, Mean” value [1] was 6.88E-13, the “N-oleoyl proline level, Mean” value [1] was “BDL” and the “N-oleoyl serine level, Mean” value [1] was 3.07E-10. The “N-oleoyl tryptophan level, Mean” value [1] was “BDL”, the “N-oleoyl tyrosine level, Mean” value [1] was 1.89E-13 and the “N-oleoyl valine level, Mean” value [1] was “PISSR”. The “N-palmitoyl GABA level, Mean” value [1] was 6.6E-12, the “N-palmitoyl alanine level, Mean” value [1] was 6.9E-12 and the “N-palmitoyl ethanolamine level, Mean” value [1] was 6.24E-11. The “N-palmitoyl glycine level, Mean” value [1] was 3.58E-12, the “N-palmitoyl leucine level, Mean” value [1] was 1.26E-12 and the “N-palmitoyl methionine level, Mean” value [1] was 9.4E-13. The “N-palmitoyl phenylalanine level, Mean” value [1] was 1.3E-12, the “N-palmitoyl proline level, Mean” value [1] was “BDL” and the “N-palmitoyl serine level, Mean” value [1] was 3.09E-11. The “N-palmitoyl tryptophan level, Mean” value [1] was “BDL”, the “N-palmitoyl tyrosine level, Mean” value [1] was 4.12E-13 and the “N-palmitoyl valine level, Mean” value [1] was 2.32E-13. The “N-stearoyl GABA level, Mean” value [1] was 7.69E-12, the “N-stearoyl alanine level, Mean” value [1] was 9.94E-13 and the “N-stearoyl ethanolamine level, Mean” value [1] was 3.67E-11. The “N-stearoyl glycine level, Mean” value [1] was 5.58E-13, the “N-stearoyl leucine level, Mean” value [1] was 9.96E-13 and the “N-stearoyl methionine level, Mean” value [1] was 5.57E-13. The “N-stearoyl phenylalanine level, Mean” value [1] was 1.28E-12, the “N-stearoyl proline level, Mean” value [1] was “BDL” and the “N-stearoyl serine level, Mean” value [1] was 5.5E-11. For the same compound, the “N-stearoyl tryptophan level, Mean” value [1] was “BDL”, the “N-stearoyl tyrosine level, Mean” value [1] was 1.01E-13 and the “Oleic acid level, Mean” value [1] was 2.82E-10. The “PGE2 level, Mean” value [1] was 7.14E-11, the “PhosphoLEA level, Mean” value [1] was 1.12E-11 and the “THC level, Mean” value [1] was “BDL”. For the same compound, the “2-arachidonoyl glycerol level, Mean” value [2] was 6.64E-10, the “2-linoleoyl glycerol level, Mean” value [2] was 5.43E-11 and the “2-oleoyl glycerol level, Mean” value [2] was 7.45E-10. The “2-palmitoyl glycerol level, Mean” value [2] was 7.93E-10, the “6-ketoPGF1α level, Mean” value [2] was 1.71E-11 and the “Arachidonic acid level, Mean” value [2] was 3.33E-09. For the same compound, the “Linoleic acid level, Mean” value [2] was 2.5E-10, the “N- stearoyl valine level, Mean” value [2] was 1.41E-12 and the “N-arachidonoyl GABA level, Mean” value [2] was 3.93E-11. For the same compound, the “N-arachidonoyl alanine level, Mean” value [2] was 5.15E-12, the “N-arachidonoyl ethanolamine level, Mean” value [2] was 5.6E-12 and the “N-arachidonoyl glycine level, Mean” value [2] was 5.39E-12. For the same compound, the “N-arachidonoyl phenylalanine level, Mean” value [2] was 7.34E-13, the “N-arachidonoyl taurine level, Mean” value [2] was 1.56E-11 and the “N-docosahexaenoyl GABA level, Mean” value [2] was 5.25E-12. The “N-docosahexaenoyl ethanolamine level, Mean” value [2] was 1.68E-11, the “N-docosahexaenoyl glycine level, Mean” value [2] was 4.59E-13 and the “N-linoleoyl alanine level, Mean” value [2] was 4.26E-12. The “N-linoleoyl ethanolamine level, Mean” value [2] was 1.7E-11, the “N-linoleoyl glycine level, Mean” value [2] was 3.45E-13 and the “N-linoleoyl serine level, Mean” value [2] was 6.26E-11. For the same compound, the “N-oleoyl GABA level, Mean” value [2] was 2.02E-11, the “N-oleoyl alanine level, Mean” value [2] was 1.14E-11 and the “N-oleoyl ethanolamine level, Mean” value [2] was 1.79E-10. For the same compound, the “N-oleoyl glycine level, Mean” value [2] was 3.5E-12, the “N-oleoyl leucine level, Mean” value [2] was 3.49E-13 and the “N-oleoyl phenylalanine level, Mean” value [2] was 1.8E-12. For the same compound, the “N-oleoyl serine level, Mean” value [2] was 2.72E-10, the “N-oleoyl valine level, Mean” value [2] was 3.31E-13 and the “N-palmitoyl GABA level, Mean” value [2] was 3.44E-11. For the same compound, the “N-palmitoyl alanine level, Mean” value [2] was 3.03E-11, the “N-palmitoyl ethanolamine level, Mean” value [2] was 4.49E-11 and the “N-palmitoyl glycine level, Mean” value [2] was 1.16E-11. The “N-palmitoyl leucine level, Mean” value [2] was 2.12E-12, the “N-palmitoyl methionine level, Mean” value [2] was 5.5E-12 and the “N-palmitoyl phenylalanine level, Mean” value [2] was 4.4E-12. For the same compound, the “N-palmitoyl serine level, Mean” value [2] was 1.07E-11, the “N-palmitoyl tyrosine level, Mean” value [2] was 1.52E-12 and the “N-palmitoyl valine level, Mean” value [2] was 1.65E-12. For the same compound, the “N-stearoyl GABA level, Mean” value [2] was 3.84E-11, the “N-stearoyl alanine level, Mean” value [2] was 1.89E-11 and the “N-stearoyl ethanolamine level, Mean” value [2] was 3.64E-11. The “N-stearoyl glycine level, Mean” value [2] was 8.37E-12.
